In US10301272B2, “Carboxamide or sulfonamide substituted thiazoles and related derivatives as modulators for the orphan nuclear receptor ROR[γ]” (Phenex Pharmaceuticals AG, priority 2012, dated 2019):
Where two headings read alike, the source gives them in different places.

What was measured:
RORγ = RORγ (Homo sapiens, UniProt P51449); experiment: RORγ Gal4 Reporter Gene Assay; type: cell-based; conditions: for IC50: 293T cells
Method in brief: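 Cells at 5×10^5/well were transfected with RORγ fragments fused to the GAL4 DNA-binding domain (CMV promoter), a 5×GAL4-site firefly luciferase reporter and CMV-Renilla luciferase for normalization. About 4 h later serum-free MEM and compound were added (vehicle ≤0.1%). Cultures at 37 °C, 5% CO2; at least triplicates.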

[1] = molecular target: RORγ ligand binding domain (LBD) (Homo sapiens (Human), UniProt P51449); experiment: TR-FRET Activity Assay (ligand sensing assay, LANCE); conditions: for pIC50 (FRET): TR-FRET, interaction of RORγ-LBD with coactivator peptide
[2] = firefly (FF) luciferase, read-out: pIC50 (FF) (converted)
[3] = renilla normalised (RENnorm) luciferase, read-out: pIC50 (REN) (converted)

Chain of RORγ (P51449 whole entry, looked up, the tested form may be a part): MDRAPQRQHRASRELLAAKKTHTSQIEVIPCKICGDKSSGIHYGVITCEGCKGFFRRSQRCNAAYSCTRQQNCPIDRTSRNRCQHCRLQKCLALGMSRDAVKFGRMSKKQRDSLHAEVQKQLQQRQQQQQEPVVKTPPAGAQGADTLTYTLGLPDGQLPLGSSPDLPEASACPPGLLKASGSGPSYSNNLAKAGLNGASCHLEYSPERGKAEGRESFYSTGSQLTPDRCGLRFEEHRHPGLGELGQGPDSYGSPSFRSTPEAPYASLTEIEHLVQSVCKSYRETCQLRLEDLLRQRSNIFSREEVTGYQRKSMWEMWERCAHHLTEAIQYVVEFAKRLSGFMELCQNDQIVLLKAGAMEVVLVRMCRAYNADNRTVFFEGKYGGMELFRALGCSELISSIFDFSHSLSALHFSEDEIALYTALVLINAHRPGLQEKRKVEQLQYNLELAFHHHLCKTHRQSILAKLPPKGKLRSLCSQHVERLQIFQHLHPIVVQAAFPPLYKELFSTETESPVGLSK
Chain of RORγ ligand binding domain (LBD) (P51449 269-508): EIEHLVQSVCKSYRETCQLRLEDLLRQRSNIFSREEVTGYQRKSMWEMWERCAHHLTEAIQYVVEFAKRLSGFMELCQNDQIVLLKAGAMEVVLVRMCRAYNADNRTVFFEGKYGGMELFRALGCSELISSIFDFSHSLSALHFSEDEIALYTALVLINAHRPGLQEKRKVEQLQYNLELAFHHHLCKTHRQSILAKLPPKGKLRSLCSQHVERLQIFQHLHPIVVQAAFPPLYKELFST

Row | SMILES | IC50 (RORγ; [2]) | IC50 (RORγ; [3]) | pIC50 (FRET) [1] | pIC50 (FF) (RORγ) | pIC50 (REN) (RORγ) | IC50 [1]
1 | CC(=O)NS(=O)(=O)c1nc(-c2cc(C(C)(C)C)cc(C(C)(C)C)c2)c(CC2CCCCC2)s1 [Example 3, N-((5-(Cyclohexylmethyl)-4-(3,5-di-tert-butylphenyl)thiazol-2-yl)sulfonyl)acetamide] | > 20000 nM | > 20000 nM | 5.1 |  |  | 
2 | CC(C)(C)NS(=O)(=O)c1ccc(-c2oc(C(=O)NC34CCC(C(=O)NS(C)(=O)=O)(CC3)CC4)nc2CC2CCCCC2)c2ccccc12 [Example 102, 5-(4-(N-(tert-Butyl)sulfamoyl)naphthalen-1-yl)-4-(cyclohexylmethyl)-N-(4-((methylsulfonyl)carbamoyl)bicyclo[2.2.2]octan-1-yl)oxazole-2-carboxamide] |  |  | 6.0/7.3/7.4 | 6.0/7.3/7.4 | 6.0/7.3/7.4 | 
3 | CC(C)(C)c1cc(-c2cc(C(N)=O)ccc2CC2CCCCC2)cc(C(C)(C)C)c1 [Example 208, 3′,5′-Di-tert-butyl-6-(cyclohexylmethyl)-[1,1′-biphenyl]-3-carboxamide] |  |  | 6.5/6.3/6.3 | 6.5/6.3/6.3 | 6.5/6.3/6.3 | 
4 | CC(C)(C)NS(=O)(=O)c1ccc(-c2sc(C(=O)NCCC(C)(C)C(=O)O)nc2CC2CCCCC2)cc1C(F)(F)F [Example 9/1] |  |  | 6.5/7.4/7.4 | 6.5/7.4/7.4 | 6.5/7.4/7.4 | 
5 | CC(C)(C)NS(=O)(=O)c1ccc(-c2sc(C(=O)NC3CSC3)nc2CC2CCCCC2)c2ccccc12 [6/14] |  |  | 6.8/8.7/8.7 | 6.8/8.7/8.7 | 6.8/8.7/8.7 | 
6 | CC(C)(C)NS(=O)(=O)c1ccc(-c2sc(C(=O)NCC3(C(N)=O)CCOCC3)nc2CC2CCCCC2)c2ccccc12 [6/3] |  |  | 6.5/8.5/8.7 | 6.5/8.5/8.7 | 6.5/8.5/8.7 | 
7 | CC(C)(C)c1cc(-c2nc(C(N)=O)sc2CC2CCCCC2)cc(C(C)(C)C)c1 [Example 1, 5-(Cyclohexylmethyl)-4-(3,5-di-tert-butylphenyl)thiazole-2-carboxamide] |  |  | 6.5/5.8/5.8 | 6.5/5.8/5.8 | 6.5/5.8/5.8 | 
8 | CC(C)(O)CNC(=O)c1nc(CC2CCCCC2)c(-c2ccc(S(=O)(=O)NC(C)(C)C)c(Cl)c2Cl)o1 [100/15] |  |  | 6.4/7.4/7.5 | 6.4/7.4/7.5 | 6.4/7.4/7.5 | 
9 | CC(C)(C)c1cc(-c2sc(C(=O)N[C@H]3C[C@H](C(=O)O)C3)nc2CC2CCCCC2)cc(C(C)(C)O)n1 [8/10] | 158 nM | 158 nM |  |  |  | 631 nM
10 | CC(C)(O)CNC(=O)c1nc(CC2CCCCC2)c(-c2ccc(S(=O)(=O)NC(C)(C)C)c3cccc(F)c23)s1 [19/14] |  |  | 6.4/6.8/6.9 | 6.4/6.8/6.9 | 6.4/6.8/6.9 | 
11 | CCS(=O)(=O)c1ccc(CC(=O)Nc2nc(CC3CCCCC3)c(-c3ccc(S(=O)(=O)NC(C)(C)C)c(C(F)(F)F)c3)s2)cc1 [Example 200/1] |  |  | 7.1/7.4/7.8 | 7.1/7.4/7.8 | 7.1/7.4/7.8 | 
12 | CC(C)(C)c1cc(-c2oc(C(=O)N[C@H]3C[C@H](C(=O)O)C3)nc2CC2CCCCC2)cc(C2(C)CC2)c1 [100/20] |  |  | 6.0/6.8/7.0 | 6.0/6.8/7.0 | 6.0/6.8/7.0 | 
